Data: ChEMBL document CHEMBL5143557, “Synthesis and biological evaluation of 3β-O-neoglycosides of caudatin and its analogues as potential anticancer agents” (Bioorg Med Chem, 2022)

How the values were obtained:
Format in all cases: functional, cell-based
MCF7 = assay: Antiproliferative activity against human MCF7 cells after 48 hrs by MTT assay; details: MCF7, 48 h
HCT-116 = assay: Antiproliferative activity against human HCT-116 cells after 48 hrs by MTT assay; details: HCT-116, 48 h
HeLa = assay: Antiproliferative activity against human HeLa cells after 48 hrs by MTT assay
HepG2 = assay: Antiproliferative activity against human HepG2 cells after 48 hrs by MTT assay; details: HepG2, 48 h

Compound | IC50 (MCF7) | IC50 (HCT-116) | IC50 (HeLa) | IC50 (HepG2)
CC(=O)[C@]1(O)CC[C@@]2(O)[C@]1(C)[C@H](OC(=O)c1ccc(O)cc1)C[C@@H]1[C@@]3(C)CC[C@H](O)CC3=CC[C@]12O | 83.1 µM | 73 µM | > 100 µM | 79.1 µM
CC(=O)[C@]1(O)CC[C@@]2(O)[C@]1(C)[C@H](OC(=O)/C=C(\C)C(C)C)C[C@@H]1[C@@]3(C)CC[C@H](O[C@@H]4OC[C@H](O)[C@H](O)[C@H]4O)CC3=CC[C@]12O | > 100 µM | > 100 µM | > 100 µM | 87.5 µM
CC(=O)O[C@@H]1[C@@H](OC(C)=O)[C@H](O[C@H]2CC[C@@]3(C)C(=CC[C@]4(O)[C@@H]3C[C@@H](OC(=O)c3ccc(O)cc3)[C@@]3(C)[C@]4(O)CC[C@@]3(O)C(C)=O)C2)OC[C@H]1OC(C)=O | 55.4 µM | 35.3 µM | 60.8 µM | 28.5 µM
CC(=O)O[C@@H]1[C@@H](OC(C)=O)[C@H](O[C@H]2CC[C@@]3(C)C(=CC[C@]4(O)[C@@H]3C[C@@H](OC(=O)/C=C(\C)C(C)C)[C@@]3(C)[C@]4(O)CC[C@@]3(O)C(C)=O)C2)OC[C@@H]1OC(C)=O | 43.1 µM | 23.8 µM | 33.6 µM | 23.6 µM
CC(=O)O[C@@H]1[C@@H](O[C@H]2CC[C@@]3(C)C(=CC[C@]4(O)[C@@H]3C[C@@H](OC(=O)/C=C(\C)C(C)C)[C@@]3(C)[C@]4(O)CC[C@@]3(O)C(C)=O)C2)OC[C@@H](OC(C)=O)[C@H]1OC(C)=O | 52.6 µM | 29.6 µM | 60.5 µM | 52.8 µM
CC(=O)OC[C@H]1O[C@@H](O[C@H]2CC[C@@]3(C)C(=CC[C@]4(O)[C@@H]3C[C@@H](OC(=O)c3ccc(O)cc3)[C@@]3(C)[C@]4(O)CC[C@@]3(O)C(C)=O)C2)[C@H](OC(C)=O)[C@@H](OC(C)=O)[C@@H]1OC(C)=O | 90.9 µM | 66.2 µM | 95.8 µM | 74.5 µM
CC(=O)[C@]1(O)CC[C@@]2(O)[C@]1(C)[C@H](OC(=O)c1ccc(O)cc1)C[C@@H]1[C@@]3(C)CC[C@H](O[C@@H]4O[C@H](CO)[C@H](O)[C@H](O)[C@H]4O)CC3=CC[C@]12O | 20.9 µM | 27.3 µM | 25.1 µM | 23.7 µM
CC(=O)OC[C@H]1O[C@H](O[C@H]2CC[C@@]3(C)C(=CC[C@]4(O)[C@@H]3C[C@@H](OC(=O)/C=C(\C)C(C)C)[C@@]3(C)[C@]4(O)CC[C@@]3(O)C(C)=O)C2)[C@@H](OC(C)=O)[C@@H](OC(C)=O)[C@@H]1OC(C)=O | 42.7 µM | 15.6 µM | 70.2 µM | 23.7 µM
CC(=O)OC[C@H]1O[C@@H](O[C@H]2CC[C@@]3(C)C(=CC[C@]4(O)[C@@H]3C[C@@H](OC(=O)/C=C/c3ccccc3)[C@@]3(C)[C@]4(O)CC[C@@]3(O)[C@H](C)OC(=O)c3cccnc3)C2)[C@H](OC(C)=O)[C@@H](OC(C)=O)[C@@H]1OC(C)=O | 82.8 µM | 36.1 µM | 79.6 µM | 26.4 µM
CC(=O)OC[C@H]1O[C@@H](O[C@H]2CC[C@@]3(C)C(=CC[C@]4(O)[C@@H]3C[C@@H](OC(=O)/C=C(\C)C(C)C)[C@@]3(C)[C@]4(O)CC[C@@]3(O)C(C)=O)C2)[C@H](OC(C)=O)[C@@H](OC(C)=O)[C@@H]1OC(C)=O | 93.4 µM | 26.6 µM | > 100 µM | 65.8 µM
CC(=O)O[C@H]1[C@H](OC(C)=O)[C@@H](O[C@H]2CC[C@@]3(C)C(=CC[C@]4(O)[C@@H]3C[C@@H](OC(=O)/C=C(\C)C(C)C)[C@@]3(C)[C@]4(O)CC[C@@]3(O)C(C)=O)C2)O[C@@H](C)[C@H]1OC(C)=O | 31.5 µM | 18.4 µM | 31.7 µM | 18.9 µM
CC(=O)[C@]1(O)CC[C@@]2(O)[C@]1(C)[C@H](OC(=O)/C=C(\C)C(C)C)C[C@@H]1[C@@]3(C)CC[C@H](O[C@@H]4OC[C@@H](O)[C@H](O)[C@H]4O)CC3=CC[C@]12O | 95.9 µM | 90.9 µM | > 100 µM | 90.9 µM
CC(=O)[C@]1(O)CC[C@@]2(O)[C@]1(C)[C@H](OC(=O)/C=C(\C)C(C)C)C[C@@H]1[C@@]3(C)CC[C@H](O[C@H]4C[C@H](O)[C@H](O)CO4)CC3=CC[C@]12O | 93 µM | 36.8 µM | 86.5 µM | 39.8 µM
CC(=O)OC[C@H]1O[C@@H](O[C@H]2CC[C@@]3(C)C(=CC[C@]4(O)[C@@H]3C[C@@H](OC(=O)/C=C/c3ccccc3)[C@@]3(C)[C@]4(O)CC[C@@]3(O)[C@H](C)OC(=O)c3cccnc3)C2)[C@H](OC(C)=O)[C@@H](OC(C)=O)[C@H]1OC(C)=O | 24.5 µM | 7.11 µM | 20.7 µM | 8.49 µM
CC(=O)[C@]1(O)CC[C@@]2(O)[C@]1(C)[C@H](OC(=O)c1ccc(O)cc1)C[C@@H]1[C@@]3(C)CC[C@H](O[C@@H]4O[C@H](CO)[C@@H](O)[C@H](O)[C@H]4O)CC3=CC[C@]12O | 92.6 µM | 75.1 µM | 95.5 µM | 65.3 µM
CC(=O)[C@]1(O)CC[C@@]2(O)[C@]1(C)[C@H](OC(=O)c1ccc(O)cc1)C[C@@H]1[C@@]3(C)CC[C@H](O[C@@H]4O[C@@H](C)[C@H](O)[C@@H](O)[C@H]4O)CC3=CC[C@]12O | 88.5 µM | 60.3 µM | 91.3 µM | 54.6 µM
CC(=O)O[C@@H]1[C@@H](OC(C)=O)[C@H](C)O[C@@H](O[C@H]2CC[C@@]3(C)C(=CC[C@]4(O)[C@@H]3C[C@@H](OC(=O)c3ccc(O)cc3)[C@@]3(C)[C@]4(O)CC[C@@]3(O)C(C)=O)C2)[C@@H]1OC(C)=O | 53.6 µM | 48.7 µM | 57.1 µM | 41.4 µM
CC(=O)OC[C@H]1O[C@@H](O[C@H]2CC[C@@]3(C)C(=CC[C@]4(O)[C@@H]3C[C@@H](OC(=O)c3ccc(O)cc3)[C@@]3(C)[C@]4(O)CC[C@@]3(O)C(C)=O)C2)[C@H](OC(C)=O)[C@@H](OC(C)=O)[C@H]1OC(C)=O | 20.8 µM | 9.32 µM | 22.8 µM | 9.9 µM
CC(=O)O[C@H]1C[C@H](O[C@H]2CC[C@@]3(C)C(=CC[C@]4(O)[C@@H]3C[C@@H](OC(=O)/C=C(\C)C(C)C)[C@@]3(C)[C@]4(O)CC[C@@]3(O)C(C)=O)C2)OC[C@H]1OC(C)=O | 26.2 µM | 31.6 µM | 43.8 µM | 14.1 µM
CC(=O)N[C@H]1[C@H](O[C@H]2CC[C@@]3(C)C(=CC[C@]4(O)[C@@H]3C[C@@H](OC(=O)/C=C(\C)C(C)C)[C@@]3(C)[C@]4(O)CC[C@@]3(O)C(C)=O)C2)O[C@H](COC(C)=O)[C@@H](OC(C)=O)[C@@H]1OC(C)=O | 21.1 µM | 17.3 µM | 23.8 µM | 5.5 µM
CC(=O)[C@]1(O)CC[C@@]2(O)[C@]1(C)[C@H](OC(=O)/C=C(\C)C(C)C)C[C@@H]1[C@@]3(C)CC[C@H](O[C@H]4OC[C@H](O)[C@H](O)[C@@H]4O)CC3=CC[C@]12O | > 100 µM | 72.1 µM | > 100 µM | 51.8 µM
CC(=O)O[C@@H]1[C@@H](OC(C)=O)[C@H](O[C@H]2CC[C@@]3(C)C(=CC[C@]4(O)[C@@H]3C[C@@H](OC(=O)/C=C(\C)C(C)C)[C@@]3(C)[C@]4(O)CC[C@@]3(O)C(C)=O)C2)OC[C@H]1OC(C)=O | 50.4 µM | 34.9 µM | 85.3 µM | 42.6 µM
CC(=O)O[C@@H]1[C@@H](O[C@H]2CC[C@@]3(C)C(=CC[C@]4(O)[C@@H]3C[C@@H](OC(=O)/C=C(\C)C(C)C)[C@@]3(C)[C@]4(O)CC[C@@]3(O)C(C)=O)C2)OC[C@H](OC(C)=O)[C@H]1OC(C)=O | 47 µM | 12 µM | 28.1 µM | 15.8 µM
CC(=O)O[C@@H]1[C@@H](OC(C)=O)[C@H](C)O[C@@H](O[C@H]2CC[C@@]3(C)C(=CC[C@]4(O)[C@@H]3C[C@@H](OC(=O)/C=C(\C)C(C)C)[C@@]3(C)[C@]4(O)CC[C@@]3(O)C(C)=O)C2)[C@@H]1OC(C)=O | 95 µM | 26.1 µM | > 100 µM | 72.8 µM
CC(=O)OC[C@H]1O[C@@H](O[C@H]2CC[C@@]3(C)C(=CC[C@]4(O)[C@@H]3C[C@@H](OC(=O)/C=C(\C)C(C)C)[C@@]3(C)[C@]4(O)CC[C@@]3(O)C(C)=O)C2)[C@H](OC(C)=O)[C@@H](OC(C)=O)[C@H]1OC(C)=O | 16.9 µM | 7.41 µM | 24.8 µM | 9.7 µM
CC(=O)O[C@@H]1[C@@H](O[C@H]2CC[C@@]3(C)C(=CC[C@]4(O)[C@@H]3C[C@@H](OC(=O)/C=C(\C)C(C)C)[C@@]3(C)[C@]4(O)CC[C@@]3(O)C(C)=O)C2)OC[C@H](OC(C)=O)[C@@H]1OC(C)=O | 24.5 µM | 15.9 µM | 18.1 µM | 6.85 µM
CC(=O)O[C@@H]1[C@@H](OC(C)=O)[C@H](O[C@H]2CC[C@@]3(C)C(=CC[C@]4(O)[C@@H]3C[C@@H](OC(=O)/C=C/c3ccccc3)[C@@]3(C)[C@]4(O)CC[C@@]3(O)[C@H](C)OC(=O)c3cccnc3)C2)OC[C@H]1OC(C)=O | > 100 µM | 63.6 µM | > 100 µM | 70.1 µM
CC(=O)O[C@H]1[C@H](O[C@H]2CC[C@@]3(C)C(=CC[C@]4(O)[C@@H]3C[C@@H](OC(=O)/C=C(\C)C(C)C)[C@@]3(C)[C@]4(O)CC[C@@]3(O)C(C)=O)C2)OC[C@@H](OC(C)=O)[C@H]1OC(C)=O | 61.1 µM | 52.1 µM | 58.7 µM | 30.8 µM
CC(=O)O[C@H]1[C@@H](OC(C)=O)[C@@H](C)O[C@@H](O[C@H]2CC[C@@]3(C)C(=CC[C@]4(O)[C@@H]3C[C@@H](OC(=O)/C=C(\C)C(C)C)[C@@]3(C)[C@]4(O)CC[C@@]3(O)C(C)=O)C2)[C@@H]1OC(C)=O | 38.3 µM | 20.3 µM | 44.3 µM | 23.8 µM
COc1cc2c(c(OC)c1OC)-c1ccc(OC)c(=O)cc1[C@@H](NC(C)=O)CC2 [COLCHICINE] | 0.028 µM | 0.046 µM | – | 0.064 µM
